Data published in ChEMBL document CHEMBL1800037, “Anti-proliferative activity of aguerin B and a new rare nor-guaianolide lactone isolated from the aerial parts of Centaurea deflexa” (Eur J Med Chem, 2011).
Calls of active or inactive are those of the source. No cut-off for these calls is given here.

Columns and labels:
[1] = system: COLO 320; experiment: Antiproliferative activity against human COLO320 cells; assay type: functional, cell-based; settings: TDE = time-dependent effect
[2] = system: MIA PaCa-2; experiment: Antiproliferative activity against human MIAPaCa2 cells after 48 hrs; assay type: functional, cell-based; settings: MIA PaCa-2, 48 h
[3] = system: MIA PaCa-2; experiment: Antiproliferative activity against human MIAPaCa2 cells after 48 to 72 hrs; assay type: functional, cell-based
[4] = system: HEK293; experiment: Antiproliferative activity against human HEK293 cells up to 100 uM; assay type: cell-based
[5] = system: COLO 320; experiment: Antiproliferative activity against human COLO320 cells after 48 to 72 hrs; assay type: functional, cell-based
[6] = system: MIA PaCa-2; experiment: Antiproliferative activity against human MIAPaCa2 cells; assay type: functional, cell-based; settings: TDE = time-dependent effect
[7] = system: MIA PaCa-2; experiment: Induction of apoptosis in human MIAPaCa2 cells assessed as increase of interneucleosomal DNA fragmentation at 10 uM after 24 hrs; assay type: functional, cell-based
[8] = Antiproliferative activity against human COLO320 cells after 72 hrs; assay type: functional, cell-based; settings: COLO 320, 72 h
[9] = system: COLO 320; experiment: Induction of apoptosis in human COLO320 cells assessed as increase of interneucleosomal DNA fragmentation at 10 uM after 24 hrs; assay type: functional, cell-based
[10] = system: MIA PaCa-2; experiment: Antiproliferative activity against human MIAPaCa2 cells after 72 hrs; assay type: functional, cell-based; settings: MIA PaCa-2, 72 h
[11] = Antiproliferative activity against human COLO320 cells after 48 hrs; assay type: functional, cell-based; settings: COLO 320, 48 h
[12] = system: MIA PaCa-2; experiment: Induction of apoptosis in human MIAPaCa2 cells assessed as increase of interneucleosomal DNA fragmentation at 5 uM after 24 hrs relative to control; assay type: functional
[13] = system: COLO 320; experiment: Induction of apoptosis in human COLO320 cells assessed as increase of interneucleosomal DNA fragmentation at 5 uM after 24 hrs relative to control; assay type: functional

Compound | Activity [1] | IC50 [2] | Activity [3] | Activity [4] | Activity [5] | Activity [6] | Activity [7] | IC50 [8] | Activity [9] | IC50 [10] | IC50 [11] | fold change (FC) [12] | fold change (FC) [13]
C=C1C[C@H](O)[C@@H]2[C@H](OC(=O)[C@H]2C)[C@H]2CC(=O)C[C@@H]12 | tde | 25.7 µM | Dose-dependent effect | Non-toxic | Dose-dependent effect | tde | inactive | 6 µM | inactive | 15.9 µM | 10 µM | – | –
C=C(C)C(=O)O[C@H]1CC(=C)[C@@H]2C[C@H](O)C(=C)[C@@H]2[C@H]2OC(=O)C(=C)[C@@H]21 [AGUERIN B] | tde | 7.5 µM | Dose-dependent effect | Non-toxic | Dose-dependent effect | tde | – | 2.6 µM | – | 3.6 µM | 3.2 µM | >2 | >2
O=c1[nH]cc(F)c(=O)[nH]1 [FLUOROURACIL] | – | 14 µM | – | – | – | – | – | 8.7 µM | – | 7.4 µM | 10 µM | – | –
